Reference: patent US9107411B2, “Indolecarboxamides and benzimidazolecarboxamides as insecticides and acaricides” (BAYER INTELLECTUAL PROPERTY GMBH, priority 2011, dated 2015)

Tests used:
Spodoptera frugiperda = Spodoptera frugiperda test (SPODFR spray treatment); assay type: in vivo; conditions: maize leaf discs, after 7 days
Summary of the method: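 Maize leaf discs sprayed with active ingredient formulated in acetone/dimethylformamide with emulsifier, diluted in emulsifier-containing water to the desired concentration. After drying, discs were populated with armyworm caterpillars. Efficacy (%) scored after 7 days: 100% all caterpillars killed, 0% none killed.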

Lucilia cuprina larvae = assay: Lucilia cuprina test (LUCICU); assay type: in vivo; conditions: application rate 100 ppm; treated horse meat; after 2 days
Summary of the method: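 About 20 Lucilia cuprina larvae placed on horse meat treated with compound formulation (DMSO concentrate diluted in water). Kill (%) scored after 2 days, 100% meaning all larvae dead.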

Phaedon cochleariae = assay: Phaedon test (PHAECO spray treatment); assay type: in vivo; conditions: Chinese cabbage leaf discs, after 7 days
Summary of the method: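 Chinese cabbage leaf discs were sprayed with compound in acetone/DMF with emulsifier, diluted in water to the test concentration. After drying, discs were infested with mustard beetle larvae. Efficacy in % was scored after 7 days, where 100% means all larvae were killed and 0% means none.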

Ctenocephalides felis = Ctenocephalides felis oral (CTECFE); assay type: in vivo; conditions: application rate 100 ppm in citrated cattle blood; after 2 days
Summary of the method: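 About 20 unfed adult fleas fed through a Parafilm membrane on citrated cattle blood containing the compound at the desired concentration, diluted from a DMSO concentrate. Kill in % was scored after 2 days, where 100% means all fleas dead and 0% none.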

Myzus persicae = assay: Myzus test (MYZUPE spray treatment); assay type: in vivo; conditions: Chinese cabbage leaf discs, after 6 days
Procedure: Myzus Test (MYZUPE Spray Treatment) Solvent: 78 parts by weight of acetone • • 1.5 parts by weight of dimethylformamide Emulsifier: 0.5 part by weight of alkylaryl polyglycol ether To produce an appropriate active ingredient formulation, 1 part by weight of active ingredient is mixed with the stated amounts of solvent and emulsifier, and the concentrate is diluted with emulsifier-containing water to the desired concentration. Leaf discs of Chinese cabbage (Brassica pekinensis) infested by all stages of the green peach aphid (Myzus persicae) are sprayed with an active ingredient formulation of the desired concentration. After 6 days, the efficacy in % is determined. 100% means that all of the aphids have been killed; 0% means that none of the aphids have been killed.

Boophilus microplus = Boophilus microplus test (BOOPMI injection); assay type: in vivo; conditions: application rate 20 μg/animal; injected into the abdomen; after 7 days
Summary of the method: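 Active ingredient dissolved in DMSO (10 mg in 0.5 ml, then diluted to the test concentration) and injected into the abdomen of Boophilus microplus ticks. Ticks kept in dishes in a climate-controlled room for 7 days. Efficacy (%) is based on laying of fertile eggs; 100% means no tick laid fertile eggs.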

logP (HPLC-MS) = assay type: physicochemical; conditions: HPLC, reversed-phase column (C18), 43° C.
adult Musca domestica = assay: Musca domestica test (MUSCDO); assay type: in vivo; conditions: application rate 100 ppm; treated sponge; after 2 days
Summary of the method: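 Compound dissolved in DMSO and diluted with water to the desired concentration was applied to a sponge, and vessels were populated with adult flies. Kill % was scored after 2 days, where 100% means all flies dead.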

Tetranychus urticae = assay: Tetranychus test, OP-resistant (TETRUR spray treatment); assay type: in vivo; conditions: bean leaf discs, after 6 days
Summary of the method: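 Bean leaf discs infested with all stages of OP-resistant T. urticae sprayed with compound formulated in acetone/DMF plus alkylaryl polyglycol ether emulsifier, diluted in water. Efficacy (% mites killed) scored after 6 days.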

Amblyomma hebraeum = assay: Amblyomma hebaraeum test (AMBYHE); assay type: in vivo; conditions: application rate 100 ppm; tick nymphs immersed one minute; after 42 days
Procedure: Amblyomma hebaraeum Test (AMBYHE) Solvent: dimethyl sulphoxide To prepare an appropriate active ingredient formulation, 10 mg of active ingredient are mixed with 0.5 ml of dimethyl sulphoxide and the concentrate is diluted with water to the desired concentration. Tick nymphs (Amblyomma hebraeum) are placed into perforated plastic beakers and immersed in the desired concentration for one minute. The ticks are transferred on filter paper into a Petri dish and stored in a climate-controlled cabinet. After 42 days, the kill in % is determined 100% means that all of the ticks have been killed; 0% means that none of the ticks have been killed.

[1] = tested on: adult engorged Boophilus microplus females of the SP-resistant Parkhurst strain; assay: Boophilus microplus test (DIP); assay type: in vivo; conditions: application rate 100 ppm, after 7 days
Procedure: Boophilus microplus Test (DIP)
Test animals: adult engorged Boophilus microplus females of the SP-resistant Parkhurst strain
Solvent: dimethyl sulphoxide
10 mg of active ingredient are dissolved in 0.5 ml of dimethyl sulphoxide. For the purpose of preparing a suitable formulation, the active ingredient solution is diluted with water to the concentration desired in each case.
This active ingredient formulation is pipetted into tubes. 8-10 ticks are transferred into a further tube with holes. The tube is immersed into the active ingredient formulation, and all ticks are completely wetted. After the liquid has run out, the ticks are transferred onto filter discs in plastic dishes and stored in a climate-controlled room.
The activity is assessed after 7 days by laying of fertile eggs. Eggs whose fertility is not outwardly visible are stored in glass tubes in a climate-controlled cabinet until the larvae hatch. An efficacy of 100% means that none of the ticks has laid any fertile eggs.

[2] = acidic range pH 2.7, acetonitrile (0.1% formic acid)/water gradient, calibration with unbranched alkan-2-ones

log p (logP (HPLC-MS); [2])	log p (logP (HPLC-MS); acidic range pH 2.7, EEC directive 79/831 Annex V.A8, two values = both regioisomers (G = N))	SMILES	efficacy in % (Spodoptera frugiperda; application rate 100 g/ha)	efficacy (kill in %) (Lucilia cuprina larvae)	efficacy in % (Phaedon cochleariae; application rate 100 g/ha)	efficacy (kill in %) (Ctenocephalides felis)	efficacy in % (Myzus persicae; application rate 100 g/ha)	efficacy (laying of fertile eggs) (Boophilus microplus)	efficacy (kill in %) (adult Musca domestica)	efficacy in % (Tetranychus urticae; application rate 100 g/ha)	efficacy in % (Spodoptera frugiperda; application rate 500 g/ha)	efficacy (kill in %) (Amblyomma hebraeum)	efficacy in % (Phaedon cochleariae; application rate 500 g/ha)	efficacy in % (Tetranychus urticae; application rate 500 g/ha)	efficacy in % (Myzus persicae; application rate 500 g/ha)	efficacy (laying of fertile eggs) [1]
3.65		CCn1c(C(=O)NC(c2ccc(F)c(Cl)c2)C(F)(F)F)cc2cc(C(=O)NC3CC3)c(C)cc21 (stereo not shown) [Compound 192]	100%	100%	100%	100%	90%	100%	100%	100%						
3.71		CCn1c(C(=O)NC(c2ccc(F)c(Br)c2)C(F)(F)F)cc2cc(C(=O)NC3(C#N)CC3)c(C)cc21 (stereo not shown) [Compound 191]	100%	100%	100%	100%	90%	100%	90%	100%						
3.52		C#CCn1c(C(=O)NC(c2ccc(F)c(Br)c2)C(F)(F)F)cc2cc(C(=O)NC3CC3)c(Cl)cc21 (stereo not shown) [Compound 14]		100%		100%		100%	100%		100%	100%	100%	100%		
3.71		CCn1c(C(=O)NC(c2ccc(F)c(C(F)(F)F)c2)C(F)(F)F)nc2cc(C(=O)NC3CC3)c(Cl)cc21 (stereo not shown) [Compound 38]		100%		100%	100%	100%	100%		100%		100%	100%	90%	
	3.98	CCc1cc2c(cc1C(=O)NC1(C#N)CC1)cc(C(=O)NC(c1cccc(C(F)(F)F)c1)C(F)(F)F)n2CC (stereo not shown) [Compound 282]	100%	100%	100%	100%	80%	100%	90%	100%						
3.59		CCn1c(C(=O)NC(c2ccc(F)c(Cl)c2)C(F)(F)F)nc2cc(C(=O)NC3CC3)c(Cl)cc21 (stereo not shown) [Compound 37]		100%		100%		100%	100%		100%		100%	100%	90%	
3.48		CCn1c(C(=O)NC(c2cccc(OC(F)F)c2)C(F)(F)F)cc2cc(C(=O)NC3CC3)c(Cl)cc21 (stereo not shown) [Compound 276]	100%	100%	100%	100%	90%	100%	100%	90%						
3.52		Cn1c(C(=O)NC(c2ccc(F)c(Cl)c2)C(F)(F)F)cc2cc(C(=O)NC3(C#N)CC3)c(Cl)cc21 (stereo not shown) [Compound 54]	100%	100%	100%	100%	100%	100%	100%	100%						
3.82		CCn1c(C(=O)NC(c2ccc(F)c(Br)c2)C(F)(F)F)cc2cc(C(=O)NC3CC3)c(Cl)cc21 (stereo not shown) [Compound 12]	100%	100%	100%	100%	90%	100%	100%	100%						
3.62		C#CCn1c(C(=O)NC(c2ccc(F)c(C(F)(F)F)c2)C(F)(F)F)nc2cc(C(=O)NC3CC3)c(Cl)cc21 (stereo not shown) [Compound 97]		100%		95%	100%	100%	100%		100%		100%	100%		
3.82		CCn1c(C(=O)NC(c2ccc(F)c(Cl)c2)C(F)(F)F)cc2cc(C(=O)NC3CC3)c(Cl)cc21 (stereo not shown) [Compound 18]	100%	100%	100%	100%		100%	100%	90%						80%
